# Test results reported in the supplement of paper PMC10307832.
# Experiments:
# Assay in all cases: relative viability (nuclei count vs DMSO), 5 days (fraction); higher = more cells survive
# NCI-H522 = system: NCI-H522
# Method in brief: (§1)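 Relative viability was taken as the ratio of nuclei in treated wells to nuclei in vehicle wells. Lung cancer cell lines in 1536-well plates received compounds by pin tool one day after seeding, either one drug alone or a fixed anchor-drug dose plus five library-drug doses (not always all listed) in √10 steps. Nuclei were counted on 4× images after 5 days of treatment, and values are medians of duplicate plates.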
# NCI-H1993 = system: NCI-H1993
# Method in brief: as §1
# NCI-H1648 = system: NCI-H1648
# Method in brief: as §1
# NCI-H596 = system: NCI-H596
# Method in brief: as §1
# NCI-H1623 = system: NCI-H1623
# Method in brief: as §1
# NCI-H23 = system: NCI-H23
# Method in brief: as §1
# A549 = system: A549
# Method in brief: as §1
# Calu-6 = system: Calu-6
# Method in brief: as §1
# EBC-1 = system: EBC-1
# Method in brief: as §1
# IA-LM = system: IA-LM
# Method in brief: as §1
# NCI-H1703 = system: NCI-H1703
# Method in brief: as §1
# NCI-H1299 = system: NCI-H1299
# Method in brief: as §1
smiles,measurement,setting,value
NC(=O)Nc1cc(-c2cccc(F)c2)sc1C(=O)N[C@H]1CCCNC1 [AZD7762] + Cc1cc(Nc2cc(N3CCN(C)CC3)nc(Sc3ccc(NC(=O)C4CC4)cc3)n2)n[nH]1 [Tozasertib] (partner 0.1 µM),relative viability,NCI-H522; first compound 0.01 µM,0.536
same,relative viability,NCI-H522; first compound 0.03162 µM,0.657
same,relative viability,NCI-H522; first compound 0.1 µM,0.621
same,relative viability,NCI-H522; first compound 0.3162 µM,0.566
same,relative viability,NCI-H522; first compound 1 µM,0.535
same,relative viability,NCI-H1993; first compound 0.01 µM,0.654
same,relative viability,NCI-H1993; first compound 0.03162 µM,0.579
same,relative viability,NCI-H1993; first compound 0.1 µM,0.628
same,relative viability,NCI-H1993; first compound 0.3162 µM,0.641
same,relative viability,NCI-H1993; first compound 1 µM,0.547
same,relative viability,NCI-H1648; first compound 0.01 µM,0.527
same,relative viability,NCI-H1648; first compound 0.03162 µM,0.552
same,relative viability,NCI-H1648; first compound 0.1 µM,0.36
same,relative viability,NCI-H1648; first compound 0.3162 µM,0.451
same,relative viability,NCI-H1648; first compound 1 µM,0.425
same,relative viability,NCI-H596; first compound 0.01 µM,0.978
same,relative viability,NCI-H596; first compound 0.03162 µM,0.83
same,relative viability,NCI-H596; first compound 0.1 µM,0.847
same,relative viability,NCI-H596; first compound 0.3162 µM,0.946
same,relative viability,NCI-H596; first compound 1 µM,0.793
same,relative viability,NCI-H1623; first compound 0.01 µM,0.4
same,relative viability,NCI-H1623; first compound 0.03162 µM,0.43
same,relative viability,NCI-H1623; first compound 0.1 µM,0.44
same,relative viability,NCI-H1623; first compound 0.3162 µM,0.441
same,relative viability,NCI-H1623; first compound 1 µM,0.39
same,relative viability,NCI-H23; first compound 0.01 µM,0.41
same,relative viability,NCI-H23; first compound 0.03162 µM,0.711
same,relative viability,NCI-H23; first compound 0.1 µM,0.558
same,relative viability,NCI-H23; first compound 0.3162 µM,0.33
same,relative viability,NCI-H23; first compound 1 µM,0.209
O=C(O)c1ccc(-c2c[nH]c3ncc(-c4ccccc4)cc23)cc1C1CCCC1 + COc1cccc2cc(-c3nc([C@H]4CC[C@H](C(=O)O)CC4)n4ncnc(N)c34)[nH]c12 [OSI-027] (partner 0.5 µM),relative viability,NCI-H522; first compound 0.04 µM,0.756
same,relative viability,NCI-H522; first compound 0.1265 µM,0.74
same,relative viability,NCI-H522; first compound 0.4 µM,0.56
same,relative viability,NCI-H522; first compound 1.265 µM,0.775
same,relative viability,NCI-H1993; first compound 0.04 µM,0.521
same,relative viability,NCI-H1993; first compound 0.1265 µM,0.55
same,relative viability,NCI-H1993; first compound 0.4 µM,0.568
same,relative viability,NCI-H1993; first compound 1.265 µM,0.586
same,relative viability,NCI-H1648; first compound 0.04 µM,0.245
same,relative viability,NCI-H1648; first compound 0.1265 µM,0.246
same,relative viability,NCI-H1648; first compound 0.4 µM,0.254
same,relative viability,NCI-H1648; first compound 1.265 µM,0.239
same,relative viability,NCI-H596; first compound 0.04 µM,0.728
same,relative viability,NCI-H596; first compound 0.1265 µM,0.733
same,relative viability,NCI-H596; first compound 0.4 µM,0.833
same,relative viability,NCI-H596; first compound 1.265 µM,0.654
same,relative viability,NCI-H1623; first compound 0.04 µM,0.4
same,relative viability,NCI-H1623; first compound 0.1265 µM,0.455
same,relative viability,NCI-H1623; first compound 0.4 µM,0.449
same,relative viability,NCI-H1623; first compound 1.265 µM,0.432
same,relative viability,NCI-H23; first compound 0.04 µM,0.599
same,relative viability,NCI-H23; first compound 0.1265 µM,0.71
same,relative viability,NCI-H23; first compound 0.4 µM,0.576
same,relative viability,NCI-H23; first compound 1.265 µM,0.531
O=C(O)c1ccc(-c2c[nH]c3ncc(-c4ccccc4)cc23)cc1C1CCCC1 + COc1cc2c(Oc3ccc(NC(=O)C4(C(=O)Nc5ccc(F)cc5)CC4)cc3F)ccnc2cc1OCCCN1CCOCC1 [Foretinib] (partner 0.25 µM),relative viability,A549; first compound 0.04 µM,0.944
same,relative viability,A549; first compound 0.1265 µM,1.07
same,relative viability,A549; first compound 0.4 µM,1.07
same,relative viability,A549; first compound 1.265 µM,0.628
same,relative viability,Calu-6; first compound 0.04 µM,0.872
same,relative viability,Calu-6; first compound 0.1265 µM,0.904
same,relative viability,Calu-6; first compound 0.4 µM,0.815
same,relative viability,Calu-6; first compound 1.265 µM,0.706
same,relative viability,EBC-1; first compound 0.04 µM,0.112
same,relative viability,EBC-1; first compound 0.1265 µM,0.123
same,relative viability,EBC-1; first compound 0.4 µM,0.119
same,relative viability,EBC-1; first compound 1.265 µM,0.101
same,relative viability,NCI-H1993; first compound 0.04 µM,0.788
same,relative viability,NCI-H1993; first compound 0.1265 µM,0.834
same,relative viability,NCI-H1993; first compound 0.4 µM,0.759
same,relative viability,NCI-H1993; first compound 1.265 µM,0.805
same,relative viability,NCI-H596; first compound 0.04 µM,0.783
same,relative viability,NCI-H596; first compound 0.1265 µM,0.79
same,relative viability,NCI-H596; first compound 0.4 µM,0.919
same,relative viability,NCI-H596; first compound 1.265 µM,0.999
same,relative viability,NCI-H1623; first compound 0.04 µM,0.859
same,relative viability,NCI-H1623; first compound 0.1265 µM,0.747
same,relative viability,NCI-H1623; first compound 0.4 µM,0.835
same,relative viability,NCI-H1623; first compound 1.265 µM,0.798
same,relative viability,IA-LM; first compound 0.04 µM,1.23
same,relative viability,IA-LM; first compound 0.1265 µM,1.25
same,relative viability,IA-LM; first compound 0.4 µM,1.15
same,relative viability,IA-LM; first compound 1.265 µM,0.864
same,relative viability,NCI-H23; first compound 0.04 µM,1.1
same,relative viability,NCI-H23; first compound 0.1265 µM,1
same,relative viability,NCI-H23; first compound 0.4 µM,0.939
same,relative viability,NCI-H23; first compound 1.265 µM,0.616
same,relative viability,NCI-H1703; first compound 0.04 µM,0.381
same,relative viability,NCI-H1703; first compound 0.1265 µM,0.313
same,relative viability,NCI-H1703; first compound 0.4 µM,0.348
same,relative viability,NCI-H1703; first compound 1.265 µM,0.372
same,relative viability,NCI-H1299; first compound 0.04 µM,1.12
same,relative viability,NCI-H1299; first compound 0.1265 µM,1.14
same,relative viability,NCI-H1299; first compound 0.4 µM,1.04
same,relative viability,NCI-H1299; first compound 1.265 µM,0.956
